{"source": "patent US8957024B2", "about": "“Composition and methods for reducing opioid-induced pruritus” (priority 2011, dated 2015)", "key": {"mice [1]": {"tested_on": "mice", "settings": "mouse, in vivo"}, "Myc-GRPR": {"biological_target": "T1, Myc-GRPR (Mus musculus, UniProt P21729)", "T1 construct": "expressed in transfected cells", "T1 sequence (P21729 whole entry)": "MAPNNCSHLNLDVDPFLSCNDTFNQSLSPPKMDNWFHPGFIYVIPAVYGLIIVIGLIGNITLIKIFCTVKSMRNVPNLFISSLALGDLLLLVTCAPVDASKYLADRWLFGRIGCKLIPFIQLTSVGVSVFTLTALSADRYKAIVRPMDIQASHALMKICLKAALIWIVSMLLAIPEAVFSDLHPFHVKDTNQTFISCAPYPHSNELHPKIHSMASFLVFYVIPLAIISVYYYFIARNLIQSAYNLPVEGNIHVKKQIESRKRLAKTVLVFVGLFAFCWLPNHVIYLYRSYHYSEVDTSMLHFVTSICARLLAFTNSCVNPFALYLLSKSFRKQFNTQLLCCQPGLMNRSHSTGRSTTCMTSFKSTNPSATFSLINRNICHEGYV", "experiment": "Receptor internalization assay (ELISA, immunofluorescence staining) in HEK 293 cells: GRPR", "format": "cell-based", "settings": "agonist 1 μM, 30 min"}, "HA-MOR1": {"biological_target": "T2, HA-MOR1 (Mus musculus, UniProt P42866)", "T2 construct": "expressed in transfected cells", "experiment": "Receptor internalization assay (ELISA, immunofluorescence staining) in HEK 293 cells: MOR1", "format": "cell-based", "settings": "HEK 293 cells expressing MOR1 only, or MOR1 and GRPR; agonist 1 μM"}, "HA-MOR1D": {"biological_target": "T3, HA-MOR1D (Mus musculus, UniProt P42866)", "T3 construct": "expressed in transfected cells", "experiment": "Receptor internalization assay (ELISA, immunofluorescence staining) in HEK 293 cells: MOR1D", "format": "cell-based", "settings": "HEK 293 cells expressing MOR1D, or MOR1D and GRPR; agonist 1 μM"}, "mice [2]": {"tested_on": "mice", "settings": "mouse, in vivo", "remark": "listed apart in the source"}, "mice [3]": {"tested_on": "mice", "experiment": "Von Frey assay, naive mice and CFA inflammatory pain model", "format": "in vivo, mouse", "method": "In CFA induced inflammatory pain, mice received an injection of CFA (20 μl, Sigma) into the plantar of the right hindpaw. Mechanical sensitivity was assessed using von Frey assay.\nMechanical sensitivity was assessed using a set of calibrated von Frey filaments (Stoelting). Each filament was applied 5 consecutive times and the smallest filament that evoked reflexive flinches of the paw on 3 of the 5 trials was taken as paw withdrawal threshold."}, "[4]": {"tested_on": "HEK 293 cells expressing MOR1D alone", "experiment": "Calcium imaging, cells expressing MOR1D alone", "format": "cell-based, mouse"}, "[5]": {"tested_on": "HEK 293 cells containing only GRPR", "experiment": "Calcium imaging, cells containing only GRPR", "format": "cell-based, mouse"}, "mice [6]": {"tested_on": "mice", "experiment": "Gastrin-releasing peptide induced scratching (GIS)", "format": "in vivo, mouse"}, "MOR1 mRNA": {"tested_on": "MOR1 mRNA", "experiment": "qRT-PCR after i.t. siRNA: MOR1 mRNA", "format": "in vivo, mouse", "settings": "spinal cord", "method": "(§1) Selective siRNA duplexes for mouse Oprm exons, PLCβ1/3 and IP3R3 were intrathecally injected daily for 3 consecutive days. Behavior testing and tissue harvest were carried out at 48 hr after the last injection. RNA was dissolved in diethyl pyrocarbonate-treated PBS and prepared immediately prior to administration by mixing the RNA solution with a transfection reagent, ExGen 500 (Fermentas). The final concentration of RNA was 1.25 μg/5 μl. siRNA or ExGen 500 alone (defined as vehicle) in 5 μl was delivered to the lumbar region of the spinal cord. The injection was given daily for 3 consecutive days (Luo et al., 2005; Tan et al., 2009). Behavior testing and tissue harvest were carried out 48 hr after the last injection.\n(§2) LCM were performed as previously described (van Baarlen et al., 2009) with minor modifications. Frozen sections (30 μm thickness) of the lumber spinal cord were cut at −20° C. and stored at −80° C. […]\n(§3) RNA was isolated from the LCM sample caps using the PicoPure RNA isolation kit (Arcturus) following manufacturer's recommendations. […] Quantitative PCR amplification was performed in 96-well plates on an Mx3000 QPCR system (Stratagene). […]\n(§4) Expression of target mRNA was normalized to expression of 18S rRNA. The differences in mRNA expression between treatments were analyzed using the Comparative CT Method (Gallup et al., 2005). […]"}, "MOR1D mRNA": {"tested_on": "MOR1D mRNA", "experiment": "qRT-PCR after i.t. siRNA: MOR1D mRNA", "format": "in vivo, mouse", "settings": "spinal cord", "method": "as §1, §2, §3, §4"}, "GRPR/MOR1D interaction": {"biological_target": "T4, GRPR/MOR1D interaction (Mus musculus, UniProt P21729)", "T4 construct": "co-IP analysis using the membrane extracts of the spinal cord injected with Tat-MOR1DCT and the vehicle; from tissue; host or cells: lumbar spinal cord membrane extract after intrathecal injection", "T4 sequence (P21729 whole entry)": "as above", "settings": "in vivo"}, "[7]": {"tested_on": "HEK 293 cells co-expressing MOR1 and GRPR", "experiment": "Calcium imaging, cells co-expressing MOR1 and GRPR", "format": "cell-based, mouse"}, "[8]": {"settings": "HEK 293 cells expressing GRPR alone"}}, "note": "Entries after “also recorded” stand apart in the source; their conditions may differ.", "data": [{"molecule": "2-APB", "values": [{"measurement": "effect on MIA", "setting": "mice [1]", "value": "no effect on MIA"}]}, {"molecule": "C[C@@H](NC(=O)[C@@H](N)Cc1ccc(O)cc1)C(=O)NCC(=O)N(C)[C@@H](Cc1ccccc1)C(=O)NCCO", "note": "[DAMGO]", "values": [{"measurement": "agonist-induced GRPR internalization", "setting": "Myc-GRPR; [8]", "value": "cannot internalize GRPR"}, {"measurement": "agonist-induced MOR1 internalization", "setting": "HA-MOR1", "value": "can be internalized"}, {"measurement": "agonist-induced MOR1D internalization", "setting": "HA-MOR1D", "value": "can be internalized"}]}, {"molecule": "COc1ccc2c(c1)CC[C@@H]1[C@@H]2CC[C@]2(C)[C@@H](NCCCCCCN3C(=O)C=CC3=O)CC[C@@H]12", "note": "[U73122]", "values": [{"measurement": "effect on MIA", "setting": "mice [1]", "value": "did not impact MIA; also recorded: not significantly affected"}]}, {"molecule": "COC(=O)/C=C/C(=O)N[C@@H]1CC[C@@]2(O)[C@H]3Cc4ccc(O)c5c4[C@@]2(CCN3CC2CC2)[C@H]1O5", "note": "[beta-FNA]", "values": [{"measurement": "effect on MIS", "setting": "mice [2]", "value": "significantly blocked"}]}, {"molecule": "CN1CC[C@]23c4c5ccc(O)c4O[C@H]2[C@@H](O)C=C[C@H]3[C@H]1C5", "note": "[morphine]", "values": [{"measurement": "agonist-induced GRPR internalization", "setting": "Myc-GRPR; HEK 293 cells co-expressing MOR1 and GRPR", "value": "failed to induce GRPR internalization; also recorded: when co-expressed with HA-MOR1D but not HA-MOR1"}, {"measurement": "agonist-induced GRPR internalization", "setting": "Myc-GRPR; [8]", "value": "failed to induce GRPR internalization"}, {"measurement": "mechanical threshold in CFA-treated mice", "setting": "mice [3]; i.t. morphine 0.3 nmol, 24 hr after intraplantar CFA", "value": "significantly increased mechanical threshold"}, {"measurement": "time after which no scratches were seen", "setting": "mice [2]", "value": 40, "unit": "min"}, {"measurement": "time within which MIS increased dramatically", "setting": "mice [2]", "value": "≤ 10", "unit": "min"}, {"measurement": "calcium response to agonist", "setting": "[4]", "value": "neither morphine nor GRP generated a calcium response"}, {"measurement": "MIA enhancement when the morphine dose increased from 0.3 nmol to 1.0 nmol", "setting": "mice [1]", "value": 81, "unit": "%"}, {"measurement": "MIA in mice with acute morphine tolerance", "setting": "mice [1]", "value": "significant reduction of MIA relative to the saline control"}, {"measurement": "MIA in mice with chronic morphine tolerance", "setting": "mice [1]", "value": "significant reduction of MIA relative to the saline control; also recorded: showed antinociceptive tolerance"}, {"measurement": "MIA, dose effect of i.t. morphine", "setting": "mice [1]", "value": "increased in a dose-dependent manner"}, {"measurement": "duration of MIA", "setting": "mice [1]", "value": "maintained at a maximal level for at least one hr"}, {"measurement": "calcium response to agonist", "setting": "[5]", "value": "failed to evoke Ca2+ spikes"}]}, {"molecule": "C=CCN1CC[C@]23c4c5ccc(O)c4O[C@H]2C(=O)CC[C@@]3(O)[C@H]1C5", "note": "[naloxone]", "values": [{"measurement": "effect on GIS", "setting": "mice [6]; naloxone 3 mg/kg s.c.", "value": "did not change GIS; also recorded: not significantly affected"}]}, {"molecule": "AAACCCUGCAAGAGUUGCAuu (AAACCCUGCAAGAGUUGCAUU; chemistry not given here) [exon 7 siRNA, siRNA duplex for mouse Oprm exon 7]", "values": [{"measurement": "effect of siRNA knockdown on MIA", "setting": "mice [1]", "value": "had no effect on MIA"}]}, {"molecule": "D-Phe-6-Bn(6-13)OMe [GRPR antagonist]", "values": [{"measurement": "effect on analgesic effect of intrathecal morphine in CFA model", "setting": "mice [3]; GRPR antagonist 1.0 nmol co-injection, morphine 0.3 nmol i.t.", "value": "not significantly affected"}, {"measurement": "effect of the agent itself on acute pain, von Frey", "setting": "mice [3]; i.t., without morphine", "value": "no significant effect on acute pain; also recorded: did not significantly affect the acute pain"}, {"measurement": "effect of the agent itself on acute pain, tail immersion assay", "setting": "mice [1]", "value": "no significant effect on acute pain; also recorded: did not significantly affect the acute pain"}, {"measurement": "effect on MIA", "setting": "mice [1]", "value": "remained unchanged; also recorded: not significantly affected"}]}, {"molecule": "UCUGGAAGCAGAAACUGCUuu (UCUGGAAGCAGAAACUGCUUU; chemistry not given here) [exon 4 siRNA, siRNA duplex for mouse Oprm exon 4]", "values": [{"measurement": "effect of siRNA knockdown on MIA", "setting": "mice [1]", "value": "markedly attenuated MIA; also recorded: significantly reduced morphine analgesic effect"}, {"measurement": "spinal MOR1 mRNA level", "setting": "MOR1 mRNA", "value": "selectively decreased; also recorded: significantly knocked down"}]}, {"molecule": "UGAGGAACCUUCUUCCUGAuu (UGAGGAACCUUCUUCCUGAUU; chemistry not given here) [exon 9 siRNA, siRNA duplex for mouse Oprm exon 9]", "values": [{"measurement": "effect of siRNA knockdown on MIA", "setting": "mice [1]", "value": "had no effect on MIA"}, {"measurement": "spinal MOR1D mRNA level", "setting": "MOR1D mRNA", "value": "significantly reduced"}, {"measurement": "effect of siRNA knockdown on GIS", "setting": "mice [6]; mouse, in vivo", "value": "no significant reduction of GIS; also recorded: not affected"}]}, {"molecule": "YGRKKRRQRRRRNEEPSS [Tat-MOR1DCT]", "values": [{"measurement": "amount of GRPR precipitated by MOR1D antibody (GRPR/MOR1D interaction)", "setting": "GRPR/MOR1D interaction", "value": "significantly reduced the amount of GRPR precipitated by MOR1D antibody; also recorded: markedly reduces co-immunoprecipitation of GRPR and MOR1D; also recorded: decreased GRPR/MOR1D interaction"}, {"measurement": "effect on MIA", "setting": "mice [1]", "value": "unperturbed; also recorded: had no effect on MIA"}, {"measurement": "effect on GIS", "setting": "mice [6]; mouse, in vivo", "value": "unperturbed; also recorded: without affecting GIS"}]}, {"molecule": "gastrin-releasing peptide [GRP]", "values": [{"measurement": "agonist-induced MOR1 internalization", "setting": "HA-MOR1", "value": "neither MOR1D nor MOR1 internalized"}, {"measurement": "agonist-induced MOR1D internalization", "setting": "HA-MOR1D", "value": "neither MOR1D nor MOR1 internalized; also recorded: failed to cause MOR1D internalization"}, {"measurement": "calcium response to agonist", "setting": "[4]", "value": "neither morphine nor GRP generated a calcium response"}, {"measurement": "calcium response to agonist", "setting": "[7]", "value": "they responded to GRP"}, {"measurement": "GIS in MOR KO vs wild-type littermate mice", "setting": "mice [6]; i.t. GRP", "value": "normal; also recorded: comparable"}]}]}
